Results published in US5126057A, “Disinfecting with N,N'-dihaloimidazolidin-4-ones” (Auburn Research Foundation, priority 1991, dated 1992).

What was measured:
[1] = Laboratory stability in halogen demand-free water (DFW), iodometric titration; type: physicochemical; conditions: for remaining at 23.52 h / remaining at 95.76 h / remaining at 168 h / remaining at 336 h / remaining at 504 h / remaining at 672 h / remaining at 840 h / remaining at 1008 h / remaining at 119.28 h: demand-free water
Procedure: The stability of 1,3-dichloro-2,2,5,5-tetramethylimidazolidin-4-one (Compound 1) in halogen demand-free water was determined at 22° C. and pH values of 4.5, 7.0, and 9.5, and the results were compared to those for free chlorine as supplied by calcium hypochlorite. The demand-free water (DFW) was prepared by chlorination of distilled, deionized water buffered to the appropriate pH followed by dechlorination (of the excess free chlorine) by exposure to direct sunlight until no free chlorine remained. This treatment insured that all halogen demand in the water was neutralized. Then Compound 1 and calcium hypochlorite were separately dissolved in identical DFW (buffered to an appropriate pH) solutions to the same final total chlorine concentrations (10 milligrams per liter potential positive chlorine). The solutions in separate flasks, which were stoppered with porous, sterile cotton plugs to allow free exchange with laboratory air, were then held at a constant temperature of 22° C. by means of a controlled water bath for a period of several weeks. Aliquots were withdrawn periodically (at least weekly), and the total positive chlorine remaining was determined in triplicate by standard iodometric titration. […]
The stabilities of 1,3-dibromo-2,2,5,5-tetramethylimidazolidin-4-one (Compound 4) and 1-bromo-3-chloro-2,2,5,5-tetramethylimidazolidin-4-one (Compound 5) in halogen demand-free water (DFW) were determined at 22° C. and pH values of 7.0 and 9.5 using the same procedures as discussed under example 9. Given the instability of Compound 1 at pH 4.5 (example 9), it was deemed unnecessary to test compounds 4 and 5 at that pH. The two compounds were dissolved in DFW buffered to the appropriate pH in separate flasks and held at a temperature of 22° C. by means of a constant temperature bath. The starting concentrations of total potential positive halogen in the two solutions were 22.6 milligrams per liter for Compound 4 and 16.25 milligrams per liter for Compound 5; these concentrations represent the molar equivalents in total potential positive halogen to that used for Compound 1 in example 9. The solutions were analyzed in the manner described in example 9.

[2] = Stability in synthetic halogen demand water (SDW); type: physicochemical; conditions: 4° C.; for stability (in words): heavy halogen demand (SDW), pH 9.5; for remaining at 0.083 h: pH 9.5, 0.083 hrs; for remaining at 0.5 h: pH 9.5, 0.5 hrs; for remaining at 1 h: pH 9.5, 1.0 hrs; for remaining at 2 h: pH 9.5, 2.0 hrs; for remaining at 4 h: pH 9.5, 4.0 hrs; for remaining at 24 h: pH 9.5, 24.0 hrs
Procedure: A synthetic halogen demand water (SDW) was prepared by mixing the following substances with demand-free water (DFW): 375 milligrams per liter of each of the inorganic salts sodium chloride, potassium chloride, calcium chloride, and magnesium chloride; 50 milligrams per liter of Bentonite clay; 30 milligrams per liter of humic acid; 0.01 percent final concentration of heat-treated horse serum; and 5×10^5 cells per milliliter of heat-killed Saccharomyces cerevisiae yeast cells. The SDW solution was buffered with 0.01 Molar borate/sodium hydroxide to a pH of 9.5 and held at 4° C. during the experiments. The conditions of high ionic strength, turbidity, and organic material, and alkaline pH at low temperature, are viewed as a worst-case scenario for disinfection applications and thus should provide the optimum test of stability for the new compounds.
In separate flasks were dissolved compounds 1, 2, 3, and 5 to a starting concentration of 10 milligrams per liter total potential positive chlorine or its molar equivalent (16.25 milligrams per liter) in total potential positive halogen for Compound 5. Aliquots were withdrawn frequently over a period of more than 90 hours, and the percent positive halogen remaining was determined by standard iodometric titration.

bacteria = assay: Bactericidal efficacy, summary over all bacteria and conditions; type: cell-based, Staphylococcus aureus and Pseudomonas aeruginosa; conditions: for bactericidal efficiency (in words): Table V conditions
Procedure: (§1) The halogenated imidazolidin-4-one derivatives prepared as in examples 3, 5, and 6 (Compounds 1, 5, and 3, respectively) were tested as bactericides against the microorganisms Staphylococcus aureus (ATCC25923) and Pseudomonas aeruginosa (ATCC 27853) in demand-free water (DFW) as a function of pH and temperature and in a synthetic-demand water (SDW) at pH 9.5 and 4° C. The demand-free and synthetic-demand waters were prepared as described in examples 7 and 12, respectively.
(§2) For the bactericidal efficacy tests 50 milliliters of buffered DFW or SDW were placed in a 125 milliliter flask which was then inoculated with the organism to be tested such that the final density of the organism was about 1×10^6 cfu/ml (colony forming units per milliliter). The inoculated solution was allowed to equilibrate at the test temperature by immersion in a thermostated water bath for 15 minutes with constant stirring. Then an appropriate amount of an aqueous solution containing the test halogenated imidazolidin-4-one compound maintained at the same test temperature was added to the inoculated solution to bring the total concentration of potential positive halogen (Cl^+ or Cl^+ /Br^+) in the mixture to a predetermined level (10 parts per million and 5 parts per million Cl^+ from compounds 1 and 3; the molar equivalent in Cl^+ /Br^+ from Compound 5). 1 milliliter aliquots were removed from the test mixture at various predetermined times, and the active halogen was quenched by 1 milliliter portions of sterile 0.02 Normal sodium thiosulfate. Serial dilutions were made into sterile saline, and three 25 microliter aliquots of each of the resulting dilutions were applied to the dried surface of a Petri dish containing tryptic soy and nutrient agars for plating S. aureus and P. aeruginosa, respectively. After 48 hours at 37° C. the three replicates for each dilution were counted and averaged. This average was used to compute the cfu/ml for that particular aliquot. Inactivation of the organism was considered to be at least 99.9999 percent when no colonies were detected in the thiosulfate quenched aliquots.

[3] = test system: Staphylococcus aureus (ATCC25923); assay: Bactericidal efficacy, percent inactivation of S. aureus; type: cell-based; conditions: for killing at 5 ppm: DFW; for killing at 10 ppm: SDW
Procedure: as §1, §2

[4] = synthetic halogen demand water, SDW, read-out: Percent Halogen Remaining
[5] = ATCC25923, 5 min, pH 4.5, pH 4.5, 22° C., 5 minutes
[6] = ATCC25923, 5 min, pH 7, pH 7.0, 22° C., 5 minutes
[7] = ATCC25923, 5 min, pH 9.5, pH 9.5, 4° C., 5 minutes
[8] = ATCC25923, 5 min, pH 9.5, pH 9.5, 22° C., 5 minutes
[9] = ATCC25923, 10 min, pH 4.5, pH 4.5, 22° C., 10 minutes
[10] = ATCC25923, 10 min, pH 7, pH 7.0, 22° C., 10 minutes
[11] = ATCC25923, 10 min, pH 9.5, pH 9.5, 4° C., 10 minutes
[12] = ATCC25923, 10 min, pH 9.5, pH 9.5, 22° C., 10 minutes

## CC1(C)C(=O)N(Cl)C(C)(C)N1Cl [Compound 1, 1,3-dichloro-2,2,5,5-tetramethylimidazolidin-4-one]
[1]
  stability (in words), against Compounds 4 and 5: considerably more stable in DFW at pH values of 7.0 and 9.5 and 22 °C than are Compounds 4 and 5
[1]; pH 4.5
  remaining at 23.52 h: 100%
  remaining at 95.76 h: 88.9%
  remaining at 168 h: 77.6%
  remaining at 336 h: 55.5%
  remaining at 504 h: 40.4%
  remaining at 672 h: 30.7%
  remaining at 840 h: 26%
  remaining at 1008 h: 23.5%
  stability (in words): rather unstable in acidic DFW (pH 4.5)
[1]; pH 7
  remaining at 168 h: 97.1%
  remaining at 336 h: 95%
  remaining at 504 h: 93.5%
  remaining at 672 h: 90.6%
  remaining at 840 h: 86%
  remaining at 1008 h: 83.4%
  stability (in words): considerably more stable in DFW at pH 7.0 at 22 °C than is free chlorine
[1]; pH 9.5
  remaining at 23.52 h: 96.5%
  remaining at 95.76 h: 98.9%
  remaining at 168 h: 95.1%
  remaining at 336 h: 89.4%
  remaining at 504 h: 82.6%
  remaining at 672 h: 72.3%
  remaining at 840 h: 63.7%
  remaining at 1008 h: 55.1%
  stability (in words), against free chlorine: more stable than free chlorine in alkaline DFW (pH 9.5)
[2]
  stability (in words): much more stable under these conditions than is free chlorine
[2]; [4]
  remaining at 0.083 h: 98.8%
  remaining at 0.5 h: 93.1%
  remaining at 1 h: 92.4%
  remaining at 2 h: 92.4%
  remaining at 4 h: 88.8%
[2]; synthetic halogen demand water, SDW, pH 9.5, 0.25 hrs, read-out: Percent Halogen Remaining
  remaining at 0.25 h: 98.8%
[2]; synthetic halogen demand water, SDW, pH 9.5, 25.0 hrs, read-out: Percent Halogen Remaining
  remaining at 25 h: 71.4%
[2]; synthetic halogen demand water, SDW, pH 9.5, 93.0 hrs, read-out: Percent Halogen Remaining
  remaining at 93 h: 60.2%
bacteria
  bactericidal efficiency (in words): reasonably efficient as a bactericide
[3]; [5]
  killing at 5 ppm: 100%
[3]; [6]
  killing at 5 ppm: 89.1%
[3]; [7]
  killing at 5 ppm: 71.3%
  killing at 10 ppm: 43.8%
[3]; [8]
  killing at 5 ppm: > 100%
[3]; [9]
  killing at 5 ppm: > 100%
[3]; [10]
  killing at 5 ppm: 99.1%
[3]; [11]
  killing at 5 ppm: 80.9%
  killing at 10 ppm: 68.1%
[3]; [12]
  killing at 5 ppm: > 100%

## CC1(C)NC(=O)C(C)(C)N1Cl [Compound 3, 1-chloro-2,2,5,5-tetramethylimidazolidin-4-one]
[1]; pH 7
  stability (in words): more stable than Compound 1 and considerably more stable than free chlorine (Compound 2) in DFW at pH 7.0 and 22 °C
[2]
  stability (in words): extremely stable in the presence of heavy demand
[2]; [4]
  remaining at 0.083 h: 99.2%
  remaining at 0.5 h: 96.6%
  remaining at 2 h: 95.4%
  remaining at 24 h: 94.9%
[2]; synthetic halogen demand water, SDW, pH 9.5, 8.0 hrs, read-out: Percent Halogen Remaining
  remaining at 8 h: 94.1%
[2]; synthetic halogen demand water, SDW, pH 9.5, 48.0 hrs, read-out: Percent Halogen Remaining
  remaining at 48 h: 94.5%
[2]; synthetic halogen demand water, SDW, pH 9.5, 72.0 hrs, read-out: Percent Halogen Remaining
  remaining at 72 h: 94.1%
[2]; synthetic halogen demand water, SDW, pH 9.5, 122.0 hrs, read-out: Percent Halogen Remaining
  remaining at 122 h: 94.1%
bacteria
  bactericidal efficiency (in words): least efficient
bacteria; all conditions tested, given sufficient contact time
  inactivation: greater than 99.9999%
[3]; [5]
  killing at 5 ppm: 87.4%
[3]; [6]
  killing at 5 ppm: 0%
[3]; [7]
  killing at 10 ppm: 2.86%
[3]; [8]
  killing at 5 ppm: 32.7%
[3]; [9]
  killing at 5 ppm: 96.3%
[3]; [10]
  killing at 5 ppm: 4.42%
[3]; [11]
  killing at 10 ppm: 0%
[3]; [12]
  killing at 5 ppm: 50.2%

## CC1(C)C(=O)N(Cl)C(C)(C)N1Br [Compound 5, 1-bromo-3-chloro-2,2,5,5-tetramethylimidazolidin-4-one]
[1]; pH 7
  remaining at 23.52 h: 97.3%
  remaining at 119.28 h: 95.4%
  remaining at 168 h: 91.7%
  remaining at 336 h: 88.2%
  remaining at 504 h: 75%
  remaining at 672 h: 45.9%
  remaining at 840 h: 17.5%
  remaining at 1008 h: 7.6%
[1]; pH 9.5
  remaining at 23.52 h: 96.3%
  remaining at 119.28 h: 89.5%
  remaining at 168 h: 88.3%
  remaining at 336 h: 86.3%
  remaining at 504 h: 70.8%
  remaining at 672 h: 60.8%
  remaining at 840 h: 46.8%
  remaining at 1008 h: 38.4%
  stability (in words), against free chlorine: comparable in stability to free chlorine (see data in example 9) at pH 9.5 only
[2]
  stability (in words): comparable in stability to free chlorine under these conditions
[2]; synthetic halogen demand water, SDW, pH 9.5, 0.008 hrs, read-out: Percent Halogen Remaining
  remaining at 0.008 h: 64%
[2]; synthetic halogen demand water, SDW, pH 9.5, 0.167 hrs, read-out: Percent Halogen Remaining
  remaining at 0.167 h: 49.9%
[2]; [4]
  remaining at 0.5 h: 47.1%
  remaining at 1 h: 47.4%
  remaining at 4 h: 41.9%
  remaining at 24 h: 38.2%
[2]; synthetic halogen demand water, SDW, pH 9.5, 94.0 hrs, read-out: Percent Halogen Remaining
  remaining at 94 h: 31.8%
bacteria; all conditions, less than or equal 5 minutes of contact time, even in SDW
  reduction of bacteria: greater than 99.9999%
[3]; [5]
  killing at 5 ppm: > 100%
[3]; [6]
  killing at 5 ppm: > 100%
[3]; [7]
  killing at 5 ppm: > 100%
  killing at 10 ppm: > 100%
[3]; [8]
  killing at 5 ppm: > 100%
[3]; [9]
  killing at 5 ppm: > 100%
[3]; [10]
  killing at 5 ppm: > 100%
[3]; [11]
  killing at 5 ppm: > 100%
  killing at 10 ppm: > 100%
[3]; [12]
  killing at 5 ppm: > 100%
